# Data published in patent publication EP0532446A1, “Use of xanthines in the treatment or prevention of hypeoglycemia” (NOVO NORDISK A/S, priority 1991, dated 1993).
# “And” between values parts separate entries of the source, which are not always exact repeats. Identical values can stand only once.
# Columns and labels:
# Assay type in all cases: in vivo
# [1] = Influence of theophyllamine on the blood glucose level after insulin-induced hypoglycaemia in diabetic patients
# Method: (§1) Under carefully controlled conditions hypoglycaemia was induced in each of nine diabetic patients by injection of Actrapid® Human insulin, 0.15 IU/kg (available from Novo Nordisk A/S, Bagsvaerd, Denmark). The blood glucose level was monitored from just before the injection of the insulin took place until 2 hours after. The basal level, the nadir level and the level after 1 hour and 2 hours for each subject are given in Table 2 under the entry "placebo".
# (§2) On a different day a study similar to the one described above was performed on the same patients, the only difference being that in this second study theophyllamine was administered concomitantly with the insulin. The theophyllamine was administered in the form of a bolus injection of 220 mg per person followed by a constant rate infusion of theophyllamine of 2,5 mg/kg body weight/hour. The corresponding glucose levels are given in Table 2 under the entry "theophyllamine".
# [2] = Awareness of early hypoglycaemia warning symptoms in diabetic patients taking theophyllamine regularly; conditions: some diabetic patients who have taken theophyllamine regularly as a preventive measure
# From the text: Usually hypoglycaemia can be relieved by administration of glucose or glucagon. Normally, but not always, a hypoglycaemic episode is preceded by some early warning symptoms which makes it possible for the patient to take measures against it. Throughout this specification the diabetic patients' attention to these early warning symptoms is in accordance with the common usage referred to as the "awareness".
# [3] = Influence of theophyllamine on the blood glucose level after insulin-induced hypoglycaemia in healthy subjects
# Method: as §1, with “of eleven healty subjects” for “of nine diabetic patients”, “Table 1” for “Table 2”
# as §2, with “same subjects,” for “same patients,”, “person given at the same time as the insulin” for “person”, “Table 1” for “Table 2”
# [4] = diabetic patients, given concomitantly with the insulin
# [5] = individual diabetic patients No. 1-9, insulin 0.15 IU/kg, theophyllamine bolus 220 mg per person + infusion 2,5 mg/kg body weight/hour
# [6] = mean of nine diabetic patients, insulin 0.15 IU/kg, theophyllamine bolus 220 mg per person + infusion 2,5 mg/kg body weight/hour
# [7] = healthy subjects, given concomitantly with the insulin
# [8] = individual healthy subjects No. 1-11, insulin 0.15 IU/kg, theophyllamine bolus 220 mg per person + infusion 2,5 mg/kg body weight/hour
# [9] = mean of eleven healthy subjects, insulin 0.15 IU/kg, theophyllamine bolus 220 mg per person + infusion 2,5 mg/kg body weight/hour
smiles,measurement,setting,value
"Cn1c(=O)c2[nH]cnc2n(C)c1=O [Theophyllamine, theophyllamine]",glucose level 1 hour after the administration of insulin compared with insulin alone (placebo),[1]; [4],higher
same,glucose level 2 hours after the administration of insulin compared with insulin alone (placebo),[1]; [4],higher
same,nadir level compared with insulin alone (placebo),[1]; [4],higher
same,Nadir Level (blood glucose),[1]; [5],1.5 mmol/l (2×) and 4.1 mmol/l and 1.1 mmol/l (2×) and 1.7 mmol/l and 2.6 mmol/l and 1.4 mmol/l and 2.2 mmol/l
same,blood glucose level 1 hr after insulin,[1]; [5],2.9 mmol/l (2×) and 2.1 mmol/l (3×) and 4.4 mmol/l and 1.9 mmol/l and 2.5 mmol/l (2×)
same,blood glucose level 2 hr after insulin,[1]; [5],4.8 mmol/l and 3.7 mmol/l (2×) and 6.4 mmol/l and 3.1 mmol/l and 3.0 mmol/l (3×) and 3.8 mmol/l
same,Basal Level (blood glucose),"[1]; individual diabetic patients No. 1-9, just before injection of insulin 0.15 IU/kg and theophyllamine",4.8 mmol/l and 4.5 mmol/l (2×) and 5.5 mmol/l and 4.6 mmol/l and 5.6 mmol/l and 4.7 mmol/l and 6.0 mmol/l and 4.9 mmol/l
same,"Nadir level (blood glucose), MEAN",[1]; [6],2.2 mmol/L
same,"blood glucose level 1 hr after insulin, MEAN",[1]; [6],2.6 mmol/L
same,"blood glucose level 2 hr after insulin, MEAN",[1]; [6],3.8 mmol/L
same,"Basal Level (blood glucose), MEAN","[1]; mean of nine diabetic patients, just before injection of insulin 0.15 IU/kg and theophyllamine",5.0 mmol/L
same,awareness,[2],improved awareness
same,glucose level 1 hour after the administration of insulin compared with insulin alone (placebo),[3]; [7],higher
same,glucose level 2 hours after the administration of insulin compared with insulin alone (placebo),[3]; [7],higher
same,nadir level compared with insulin alone (placebo),[3]; [7],higher
same,Nadir Level (blood glucose),[3]; [8],1.5 mmol/l (2×) and 1.3 mmol/l (2×) and 1.4 mmol/l and 2.0 mmol/l (2×) and 1.9 mmol/l and 1.6 mmol/l and 1.7 mmol/l and 2.4 mmol/l
same,blood glucose level 1 hr after insulin,[3]; [8],2.7 mmol/L and 2.4 mmol/L and 2.3 mmol/L and 3.1 mmol/L and 2.8 mmol/L and 2.5 mmol/L and 3.0 mmol/L and 3.8 mmol/L and 2.6 mmol/L and 3.4 mmol/L and 2.0 mmol/L
same,blood glucose level 2 hr after insulin,[3]; [8],3.9 mmol/l and 2.6 mmol/l and 3.1 mmol/l and 4.3 mmol/l (2×) and 4.1 mmol/l and 3.5 mmol/l (2×) and 4.5 mmol/l and 5.4 mmol/l and 5.1 mmol/l
same,Basal Level (blood glucose),"[3]; individual healthy subjects No. 1-11, just before injection of insulin 0.15 IU/kg and theophyllamine",5.2 mmol/l (4×) and 5.0 mmol/l (2×) and 5.9 mmol/l and 5.8 mmol/l (2×) and 5.6 mmol/l and 5.7 mmol/l
same,"Nadir level (blood glucose), MEAN",[3]; [9],1.7 mmol/L
same,"blood glucose level 1 hr after insulin, MEAN",[3]; [9],2.8 mmol/L
same,"blood glucose level 2 hr after insulin, MEAN",[3]; [9],4.0 mmol/L
same,"Basal Level (blood glucose), MEAN","[3]; mean of eleven healthy subjects, just before injection of insulin 0.15 IU/kg and theophyllamine",5.4 mmol/L
